# US12285012B2, “Compositions comprising pyridine carboxylate herbicides with acetolactate synthase (ALS) inhibitor herbicides” (Corteva Agriscience LLC, priority 2018, dated 2025)
# Several values for one entry are separate records, joined by “and”; a condition that tells them apart may be missing. Equal values may be shown once. Read-outs that look alike come from different tables or passages of the source.
# Experiments:
# [1] = test system: Canadian thistle (CIRAR, Cirsium arvense); assay: Greenhouse postemergence herbicidal effect; assay type: in vivo
# How it was run: (§1)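 Injury was rated visually after 20-22 d on a 0 (none) to 100% (complete kill) scale relative to solvent-sprayed controls, with sub-irrigation to avoid wash-off. Rates were given in g ae/ha or g ai/ha depending on component.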
# [2] = test system: pigweed (AMARE, Amaranthus retroflexus); assay: Greenhouse postemergence herbicidal effect; assay type: in vivo
# How it was run: as §1
# [3] = test system: pineapple weed (MATMT, Matricaria discoidea); assay: Greenhouse postemergence herbicidal effect; assay type: in vivo
# How it was run: as §1
# [4] = test system: wild buckwheat (POLCO, Polygonum convolvulus); assay: Greenhouse postemergence herbicidal effect; assay type: in vivo
# How it was run: as §1
# [5] = test system: wild chamomile (MATCH, Matricaria chamomilla); assay: Greenhouse postemergence herbicidal effect; assay type: in vivo
# How it was run: as §1
# [6] = test system: winter rape (BRSNW, Brassica napus); assay: Greenhouse postemergence herbicidal effect; assay type: in vivo
# How it was run: as §1
# [7] = test system: common lambsquarters (CHEAL, Chenopodium album L.); assay: Greenhouse postemergence herbicidal effect; assay type: in vivo
# [8] = test system: kochia (KCHSC, Kochia scoparia); assay: Greenhouse postemergence herbicidal effect; assay type: in vivo
# How it was run: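 Plants at the second or third true leaf stage received overhead spray at 187 L/ha, with the pyridine carboxylate (plus cloquintocet-mexyl safener) alone or with ALS herbicides in 1.25% v/v crop oil. Rates are in g ae/ha or g ai/ha. Visual injury versus solvent-blank controls was scored 0–100% after 20-22 d in the greenhouse.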
# [9] = test system: spring wheat (TRZAS); assay type: in vivo, Triticum aestivum; settings: for % visual injury Obs-Exp: Pyroxsulam 0
# How it was run: as §1
# [10] = test system: spring barley (HORVS); assay type: in vivo, Hordeum vulgare
# How it was run: as §1
# [11] = Compound A 10 g/ha (Examples 62-63)
# [12] = Compound A 10 g/ha, safener mefenpyr-diethyl
smiles,measurement,setting,value
"N#CCOC(=O)c1nc(-c2ccc3cc[nH]c3c2F)c(F)c(N)c1Cl [Compound A, cyanomethyl 4-amino-3-chloro-5-fluoro-6-(7-fluoro-1H-indol-6-yl)pyridine-2-carboxylate]",Obs % visual injury,"[1]; CIRAR, Compound A 10 g/ha (Table 65)",20%
same,Obs % visual injury,"[1]; CIRAR, Compound A 10 g/ha (Table 66)",30%
same,Obs % visual injury,"[1]; CIRAR, Compound A 15 g/ha",55%
same,pest or weed control at 10 g/ha,"[1]; Cirsium arvense, post-emergence, 10 g/ha, read-out: % visual injury, Obs",43%
same,pest or weed control at 10 g/ha,"[1]; Cirsium arvense, post-emergence, CIRAR, Compound A 10 g/ha, read-out: % visual injury, Obs",33%
same,pest or weed control at 15 g/ha,"[1]; Cirsium arvense, post-emergence, CIRAR, Compound A 15 g/ha, read-out: % visual injury, Obs",55%
same,pest or weed control at 10 g/ha,"[1]; Cirsium arvense, post-emergence, Compound A 10 g/ha, read-out: % visual injury, Obs",20%
same,pest or weed control at 10 g/ha,"[1]; Cirsium arvense, post-emergence, Compound A 10 g/ha, safener mefenpyr-diethyl, read-out: % visual injury, Obs",43%
same,% visual injury,[1]; Compound A 10 g/ha,40% and 60% and 30% and 33%
same,% visual injury Obs,[1]; Compound A 10 g/ha,33% and 55%
same,CIRAR % visual injury Obs,[1]; [11],20%
same,CIRAR % visual injury Obs,[1]; [12],43%
same,% visual injury,[1]; Compound A 15 g/ha,65% and 55%
same,% visual injury Obs,[1]; Compound A 15 g/ha,55%
same,"% visual injury, Obs",[2]; 10 g/ha,90%
same,"% visual injury, Obs","[2]; AMARE, Compound A 10 g/ha",75%
same,Obs % visual injury,"[2]; AMARE, Compound A 10 g/ha",75% and 85% and 100%
same,Obs % visual injury,"[2]; AMARE, Compound A 10 g/ha (Table 65)",100%
same,Obs % visual injury,"[2]; AMARE, Compound A 10 g/ha (Table 66)",90%
same,Obs % visual injury,"[2]; AMARE, Compound A 10 g/ha (Table 67)",78%
same,"% visual injury, Obs","[2]; AMARE, Compound A 15 g/ha",80%
same,Obs % visual injury,"[2]; AMARE, Compound A 15 g/ha",80%
same,Obs % visual injury,"[2]; AMARE, Compound A 15 g/ha (Table 67)",83%
same,% visual injury,[2]; Compound A 10 g/ha,73% and 90% and 75%
same,% visual injury Obs,[2]; Compound A 10 g/ha,75% and 100% and 85%
same,"% visual injury, Obs",[2]; Compound A 10 g/ha,100%
same,AMARE % visual injury Obs,[2]; [11],100%
same,"% visual injury, Obs",[2]; [12],98%
same,AMARE % visual injury Obs,[2]; [12],98%
same,% visual injury,[2]; Compound A 15 g/ha,80%
same,% visual injury Obs,[2]; Compound A 15 g/ha,80%
same,% visual injury,[3]; Compound A 10 g/ha,15%
same,% visual injury,[3]; Compound A 15 g/ha,30%
same,"% visual injury, Obs",[4]; 10 g/ha,70%
same,% visual injury,[4]; Compound A 10 g/ha,95% and 93% and 70% and 98%
same,"% visual injury, Obs",[4]; Compound A 10 g/ha,91%
same,POLCO % visual injury Obs,[4]; [11],91%
same,"% visual injury, Obs",[4]; [12],100%
same,POLCO % visual injury Obs,[4]; [12],100%
same,% visual injury,[4]; Compound A 15 g/ha,97% and 88%
same,% visual injury Obs,[4]; Compound A 15 g/ha,88%
same,"% visual injury, Obs","[4]; POLCO, Compound A 10 g/ha",98% and 78%
same,Obs % visual injury,"[4]; POLCO, Compound A 10 g/ha (Table 65)",91%
same,Obs % visual injury,"[4]; POLCO, Compound A 10 g/ha (Table 66)",70%
same,Obs % visual injury,"[4]; POLCO, Compound A 10 g/ha (Table 67)",60%
same,"% visual injury, Obs","[4]; POLCO, Compound A 15 g/ha",88%
same,Obs % visual injury,"[4]; POLCO, Compound A 15 g/ha",88%
same,Obs % visual injury,"[4]; POLCO, Compound A 15 g/ha (Table 67)",63%
same,% visual injury,[5]; Compound A 10 g/ha,40% and 30% and 45%
same,"% visual injury, Obs",[5]; Compound A 10 g/ha,13%
same,MATCH % visual injury Obs,[5]; [11],13%
same,% visual injury,[5]; Compound A 15 g/ha,50% and 45%
same,% visual injury Obs,[5]; Compound A 15 g/ha,45%
same,Obs % visual injury,"[5]; MATCH, Compound A 10 g/ha (Table 65)",13%
same,Obs % visual injury,"[5]; MATCH, Compound A 10 g/ha (Table 66)",30%
same,Obs % visual injury,"[5]; MATCH, Compound A 10 g/ha (Table 67)",15%
same,"% visual injury, Obs","[5]; MATCH, Compound A 15 g/ha",45%
same,Obs % visual injury,"[5]; MATCH, Compound A 15 g/ha",45%
same,Obs % visual injury,"[5]; MATCH, Compound A 15 g/ha (Table 67)",10%
same,"% visual injury, Obs",[6]; 10 g/ha,68%
same,"% visual injury, Obs","[6]; BRSNW, Compound A 10 g/ha",45%
same,Obs % visual injury,"[6]; BRSNW, Compound A 10 g/ha",45% and 40%
same,Obs % visual injury,"[6]; BRSNW, Compound A 10 g/ha (Table 66)",68%
same,Obs % visual injury,"[6]; BRSNW, Compound A 10 g/ha (Table 67)",60%
same,"% visual injury, Obs","[6]; BRSNW, Compound A 15 g/ha",73%
same,Obs % visual injury,"[6]; BRSNW, Compound A 15 g/ha",73%
same,Obs % visual injury,"[6]; BRSNW, Compound A 15 g/ha (Table 67)",75%
same,% visual injury,[6]; Compound A 10 g/ha,75% and 43% and 68% and 45%
same,% visual injury Obs,[6]; Compound A 10 g/ha,45% and 40%
same,% visual injury,[6]; Compound A 15 g/ha,75% and 73%
same,% visual injury Obs,[6]; Compound A 15 g/ha,73%
same,"% visual injury, Obs",[7]; 10 g/ha,83% and 90% and 78%
same,"% visual injury, Obs","[7]; CHEAL, Compound A 10 g/ha",78% and 83%
same,Obs % visual injury,"[7]; CHEAL, Compound A 10 g/ha",78% and 80% and 88%
same,Obs % visual injury,"[7]; CHEAL, Compound A 10 g/ha (Table 65)",88%
same,Obs % visual injury,"[7]; CHEAL, Compound A 10 g/ha (Table 66)",78%
same,Obs % visual injury,"[7]; CHEAL, Compound A 10 g/ha (Table 67)",78%
same,"% visual injury, Obs","[7]; CHEAL, Compound A 15 g/ha",85%
same,Obs % visual injury,"[7]; CHEAL, Compound A 15 g/ha",85%
same,Obs % visual injury,"[7]; CHEAL, Compound A 15 g/ha (Table 67)",83%
same,% visual injury,[7]; Compound A 10 g/ha,93% and 78%
same,% visual injury Obs,[7]; Compound A 10 g/ha,78% and 83% and 80%
same,"% visual injury, Obs",[7]; Compound A 10 g/ha,88%
same,CHEAL % visual injury Obs,[7]; [11],88%
same,"% visual injury, Obs",[7]; [12],100%
same,CHEAL % visual injury Obs,[7]; [12],100%
same,% visual injury,[7]; Compound A 15 g/ha,85%
same,% visual injury Obs,[7]; Compound A 15 g/ha,85%
same,pest or weed control at 10 g/ha,"[8]; Bassia scoparia, post-emergence, 10 g/ha, read-out: % visual injury, Obs",68%
same,pest or weed control at 10 g/ha,"[8]; Bassia scoparia, post-emergence, Compound A 10 g/ha, read-out: % visual injury, Obs",65%
same,pest or weed control at 10 g/ha,"[8]; Bassia scoparia, post-emergence, Compound A 10 g/ha, safener mefenpyr-diethyl, read-out: % visual injury, Obs",70%
same,pest or weed control at 10 g/ha,"[8]; Bassia scoparia, post-emergence, KCHSC, Compound A 10 g/ha, read-out: % visual injury, Obs",68%
same,pest or weed control at 15 g/ha,"[8]; Bassia scoparia, post-emergence, KCHSC, Compound A 15 g/ha, read-out: % visual injury, Obs",68%
same,% visual injury,[8]; Compound A 10 g/ha,75% and 63% and 70% and 68%
same,% visual injury Obs,[8]; Compound A 10 g/ha,68% and 58% and 70%
same,KCHSC % visual injury Obs,[8]; [11],65%
same,KCHSC % visual injury Obs,[8]; [12],70%
same,% visual injury,[8]; Compound A 15 g/ha,75% and 68%
same,% visual injury Obs,[8]; Compound A 15 g/ha,68%
same,Obs % visual injury,"[8]; KCHSC, Compound A 10 g/ha",68% and 70% and 65%
same,Obs % visual injury,"[8]; KCHSC, Compound A 10 g/ha (Table 65)",65%
same,Obs % visual injury,"[8]; KCHSC, Compound A 10 g/ha (Table 66)",70%
same,Obs % visual injury,"[8]; KCHSC, Compound A 10 g/ha (Table 67)",70%
same,Obs % visual injury,"[8]; KCHSC, Compound A 15 g/ha",68%
same,Obs % visual injury,"[8]; KCHSC, Compound A 15 g/ha (Table 67)",70%
same,"% visual injury, Obs",[9]; 10 g/ha,0%
same,% visual injury,[9]; Compound A 10 g/ha,0% and 3%
same,% visual injury Obs,[9]; Compound A 10 g/ha,0%
same,"% visual injury, Obs",[9]; Compound A 10 g/ha,0%
same,TRZAS % visual injury Obs,[9]; [11],0%
same,"% visual injury, Obs",[9]; [12],3%
same,TRZAS % visual injury Obs,[9]; [12],3%
same,% visual injury,[9]; Compound A 15 g/ha,0%
same,% visual injury Obs,[9]; Compound A 15 g/ha,0%
same,"% visual injury, Obs","[9]; TRZAS, Compound A 10 g/ha",0%
same,Obs % visual injury,"[9]; TRZAS, Compound A 10 g/ha",0%
same,Obs % visual injury,"[9]; TRZAS, Compound A 10 g/ha (Table 65)",0%
same,Obs % visual injury,"[9]; TRZAS, Compound A 10 g/ha (Table 66)",0%
same,Obs % visual injury,"[9]; TRZAS, Compound A 10 g/ha (Table 67)",3%
same,"% visual injury, Obs","[9]; TRZAS, Compound A 15 g/ha",0%
same,Obs % visual injury,"[9]; TRZAS, Compound A 15 g/ha",0%
same,Obs % visual injury,"[9]; TRZAS, Compound A 15 g/ha (Table 67)",0%
same,% visual injury Obs-Exp,[9]; printed under Compound A 10 g/ha,0%
same,% visual injury Obs-Exp,[9]; printed under Compound A 15 g/ha,0%
same,"% visual injury, Obs",[10]; 10 g/ha,0%
same,% visual injury,[10]; Compound A 10 g/ha,0%
same,% visual injury Obs,[10]; Compound A 10 g/ha,0%
same,"% visual injury, Obs",[10]; Compound A 10 g/ha,0%
same,HORVS % visual injury Obs,[10]; [11],0%
same,% visual injury,[10]; Compound A 15 g/ha,0%
same,% visual injury Obs,[10]; Compound A 15 g/ha,0%
same,"% visual injury, Obs","[10]; HORVS, Compound A 10 g/ha",0%
same,Obs % visual injury,"[10]; HORVS, Compound A 10 g/ha",0%
same,Obs % visual injury,"[10]; HORVS, Compound A 10 g/ha (Table 65)",0%
same,Obs % visual injury,"[10]; HORVS, Compound A 10 g/ha (Table 66)",0%
same,Obs % visual injury,"[10]; HORVS, Compound A 10 g/ha (Table 67)",5%
same,"% visual injury, Obs","[10]; HORVS, Compound A 15 g/ha",0%
same,Obs % visual injury,"[10]; HORVS, Compound A 15 g/ha",0%
same,Obs % visual injury,"[10]; HORVS, Compound A 15 g/ha (Table 67)",3%
